Experimental data published in patent publication US20240374535A1, “COMPOSITIONS AND METHODS FOR TREATING BIOFILM DISORDERS AND INFECTIONS” (AHV International B.V., priority 2021, published 2024).

Experiments:
[1] = system: Staphylococcus epidermis ATCC 35984 biofilm; assay: MBIC assay (biofilm inhibition, crystal violet); type: cell-based, S. epidermidis; conditions: 48 h incubation, absorbance 540 nm
Description: (§1) The exact weighed amount was noted and the volume of solvent to reach a 80 mM dilution calculated. Half of the volume was added first, by adding Tween 80. In a second step, the other half of the volume DMSO was added and the closed tube inverted 5-10 times and then vortexed very thoroughly for at least 30 seconds. If after this procedure unsolved material was still visible, the tube was placed in a shaker at 37° C. at 150 rpm for at least 30 minutes. […] For the MBEC assay (method 1.3) the solution needs to be diluted to a final concentration of 2 mM in 0.9% saline solution and then further diluted to 1 mM, 0.5 mM, 0.25 mM and 0.125 mM in saline. Those dilutions were added as treatment to the 96 well plates with the grown biofilm (see method 3).
(§2) Frozen aliquots of Staphylococcus epidermis ATCC 35984 and Pseudomonas aeruginosa ATCC 27853 were used to inoculate a tryptic soy agar (TSA) plate and were incubated overnight at 37° C. After incubation 3-5 well-isolated colonies with the same morphology were selected from the TSA plate and resuspended in 2 mL 0.9% saline solution with 3-6 glass beads and vortexed. The optical density of the bacterial suspension was measured at 600 nm (OD600) with a spectrophotometer (Evolution™ 201/220 UV-Visible Spectrophotometer, Thermo Fisher Scientific) and diluted to an OD600 of 0.2. The MBIC assay was performed in a 96-microtiter plate. 50 μL of TSB was added into columns 2-11, and 100 μL to column 12 for sterility control. 100 μL of the 8 mM test compound solution (method 1) was added to column 1. A two-fold dilution series of the solution in TSB was achieved by resuspending 50 μL of the 8 mM solution from column 1 in column 2. This step was repeated until column 10. The respective concentration of Tween 80 and DMSO in column 1 is at 2.5%, which is two-fold diluted throughout the plate. 50 μL of the bacterial suspension was added to column 1-11. The microtiter plates were sealed with adhesive polyethylene film for sealing microplates (Diversified Biotech) and incubated for 48 h at 37° C. After incubation the supernatant is carefully removed and the well with the biofilm washed for one time with 100 μL 0.9% saline solution. 100 μL 0.1 M HCl was added and incubated for 1 h at room temperature to fix the biofilm. After incubation the HCl was removed and 100 μL crystal violet (0.1% v/v in water) was added and incubated for 30 min at room temperature. The unbound crystal violet was removed and the wells washed one time with 100 μL demineralized water. 100 μL 30% acetic acid was added and incubated for 1 h at 37° C. and 150 rpm. The solution was resuspended and transferred to a flat-bottom 96-well plate and the absorbance measured at 540 nm with the spectrophotometer. This assay was repeated two times in two independent experiments.

[2] = system: Pseudomonas aeruginosa ATCC 27853 biofilm; assay: MBEC assay (biofilm eradication, CFU log reduction); type: cell-based, P. aeruginosa; conditions: 48 h grown biofilm, 20 h treatment, CFU log reduction vs untreated; for minimal effective concentration: Pseudomonas aeruginosa, ATCC27853, read-out: P. aeruginosa MBEC mM with log reduction ≥1
Description: as §1
(§3) Frozen aliquots of Staphylococcus epidermis ATCC 35984 and Pseudomonas aeruginosa ATCC 27853 were used to inoculate 20 mL of Tryptic Soy Broth (TSB) in a 100 mL Erlenmeyer flask at 37° C. and 150 rpm and incubated overnight (Infors). The OD600 of the overnight culture was measured with a spectrophotometer (Evolution™ 201/220 UV-Visible Spectrophotometer, Thermo Fisher Scientific) and diluted to an OD600 of 0.2, which resembles 10^8 CFU/mL. The cell suspension of OD600=0.2 was seeded into a U-bottom-shaped 96 well plates by pipetting 100 μL per well in column 1-11, column 12 was filled with 100 μL medium as sterility control. The 96 well plates were sealed with adhesive polyethylene film for sealing microplates and incubated for 48 h at 37° C. at static conditions. After the biofilm growth phase, 100 μL of treatment solutions (method 1) were added to the vials resulting in treatment concentrations of 1 mM, 0.5 mM, 0.25 mM and 0.125 mM and with the respective concentration of Tween 80 and DMSO each at 0.63%, 0.32%, 0.16% and 0.08%. The same concentration was applied to four different wells of the same bacterial strain, resulting in four replicates for each concentration and strain. The treatment was incubated for 20 h at 37° C. at static conditions. After the treatment the supernatant was carefully removed and the well with the biofilm washed carefully for one time with 200 μL 0.9% saline solution. 200 μL saline solution was added and the biofilm was resuspended thoroughly. When fully homogenized then 20 μL was used for the first dilution in 180 μL 0.9% saline solution, which was prepared in a second plate. This dilution was continued until dilution step 10E−5 and 100 μL of the 10E−4 and 10E−5 dilution plated on a TSA plate. The TSA plates were incubated at 37° C. for 24 h. The colonies on the plates were enumerated, the colony forming units per mL of the dispensed biofilm and averages thereof and the log reduction in comparison with the untreated sample from the same wells plate calculated. Reduction of colony forming units goes hand in hand with the thickness of the biofilm and thus with the number bacteria that are present in the biofilm. Therefore, a significant reduction of colony forming units in the biofilm was defined at the value of log reduction ≥1 or more. This assay was repeated two times in two independent experiments)

[3] = system: Pseudomonas aeruginosa ATCC 27853; assay: MIC assay (planktonic growth inhibition, OD600); type: cell-based, P. aeruginosa; conditions: 24 h at 37° C.; for IC50 / IC90: Pseudomonas aeruginosa, ATCC27853; for IC50 / P. aeruginosa MIC50: minimal concentration reducing final OD600 by 50%; for IC50: read-out: P. aeruginosa MIC50; for IC90 / P. aeruginosa MIC90: minimal concentration reducing final OD600 by 90%; for IC90: read-out: P. aeruginosa MIC90
Description: as §1
(§4) Frozen aliquots of Staphylococcus epidermis ATCC 35984 and Pseudomonas aeruginosa ATCC 27853 were used to inoculate a tryptic soy agar (TSA) plate and incubated overnight at 37° C. After incubation 3-5 well-isolated colonies with the same morphology were selected from the TSA plate and resuspended in 2 mL 0.9% saline solution with 3-6 glass beads and vortexed. The optical density at 600 nm (OD600) of the bacterial suspension was measured with a spectrophotometer (Evolution™ 201/220 UV-Visible Spectrophotometer, Thermo Fisher Scientific) and diluted to an OD600 of 0.0008, which resembles 10^6 CFU/mL.
(§5) The MIC assay was performed in a flat-bottom 96-microtiter plate. 50 μL of MHB-II was added into columns 2-11, and 100 μL to column 12 for sterility control. 100 μL of the 8 mM test compound solution (method 1) was added to column 1. A two-fold dilution series of the solution in MHB-II was achieved by resuspending 50 μL of the 8 mM solution from column 1 to column 2. This step was repeated until column 10. The respective concentration of Tween 80 and DMSO in column 1 was 2.5%, which is two-fold diluted throughout the plate. 50 μL of the bacterial suspension was added to column 1-11. The microtiter plates were sealed with adhesive polyethylene film for sealing microplates (Diversified Biotech) and incubated for 24 h at 37° C. After incubation the OD was measured at 600 nm with the Varioskan (Thermo Fisher Scientific). […] This assay was repeated three times in three independent experiments.

[4] = system: Pseudomonas aeruginosa ATCC 27853 biofilm; assay: MBIC assay (biofilm inhibition, crystal violet); type: cell-based, P. aeruginosa; conditions: 48 h incubation, absorbance 540 nm
Description: as §1, §2

[5] = system: Staphylococcus epidermis ATCC 35984; assay: MIC assay (planktonic growth inhibition, OD600); type: cell-based, S. epidermidis; conditions: 24 h at 37° C.; for IC50 / S. epidermidis MIC50: minimal concentration reducing final OD600 by 50%; for IC50: read-out: S. epidermidis MIC50; for IC90 / S. epidermidis MIC90: minimal concentration reducing final OD600 by 90%; for IC90: read-out: S. epidermidis MIC90
Description: as §1, §4, §5

[6] = system: Staphylococcus epidermis ATCC 35984 biofilm; assay: MBEC assay (biofilm eradication, CFU log reduction); type: cell-based, S. epidermidis; conditions: 48 h grown biofilm, 20 h treatment, CFU log reduction vs untreated; for minimal effective concentration: read-out: S. epidermidis MBEC mM with log reduction ≥1
Description: as §1, §3

[7] = system: udder cleft wound; assay: In vivo udder cleft dermatitis test: wound assessment after spray treatment; set-up: species or system cow; conditions: for Conclusion (effect on udder cleft wound): over 60 days, all cows of the group
Description: An example of a biofilm-related disorder is Udder Cleft Dermatitis (UCD), which relates to a chronic wound. In this Example, di-alkyl thiosulfonates, dialkyl thiosulfinates and di-alkyl disulfides were tested for their effect on cows affected by UCD.
Experiments were performed to examine the effect of various sprays containing water (control), a test compound, or a reference compound (CTC spray, which contains chlorotetracycline hydrochloride, and was obtained from Dechra veterinary products).
0.35 mL of the spray was sprayed on an udder cleft wound per treatment. Treatments took place once a day at t=0, at t=3 days and t=6 days. In Table 6, the assessment qualifications that are used in Table 7, are explained.

Row | Structure (SMILES) | S. epidermidis MBIC90 [1] | minimal effective concentration [2] | IC50 [3] | IC90 [3] | P. aeruginosa MBIC90 [4] | IC50 [5] | IC90 [5] | minimal effective concentration [6] | P. aeruginosa MBEC mM with log reduction ≥1 [2] | P. aeruginosa MIC50 [3] | P. aeruginosa MIC90 [3] | S. epidermidis MIC50 [5] | S. epidermidis MIC90 [5] | S. epidermidis MBEC mM with log reduction ≥1 [6] | Conclusion (effect on udder cleft wound) [7] | inflammation of the udder cleft wound after treatment ([7]; immediately after the treatment, later infection reduced and wound healed)
1 | Clc1ccc(SSc2ccc(Cl)cc2)cc1 [Bis (4-chlorophenyl) disulfide, Bis(4-chlorophenyl) disulfide] | >4 mM | > 1 mM | 0.02 mM | 0.03 mM | >4 mM | 0.01 mM | 0.03 mM | > 1 mM |  |  |  |  |  |  |  | 
2 | [O-][S+](Cc1ccccc1)SCc1ccccc1 [D-benzyl thiosulfinate, Di-benzyl thiosulfinate] | 4 mM |  |  |  | >4 mM |  |  |  | 0.125 mM | 0.06 mM | 0.5 mM | 0.03 mM | 0.03 mM | 1 mM |  | 
3 | [O-][S+](Sc1ccccc1)c1ccccc1 (stereo not drawn) [Di-phenyl thiosulfinate] | >4 mM |  |  |  | >4 mM |  |  |  | 2 mM | 1 mM | 1 mM | 1 mM | 1 mM | 2 mM | No effect | 
4 | CC(C)S[S+]([O-])C(C)C (stereo not drawn) [Di-isopropyl thiosulfinate] | >4 mM |  |  |  | >4 mM |  |  |  | 0.125 mM | 2 mM | 4 mM | 2 mM | 2 mM | 0.5 mM |  | 
5 | Cc1ccc(S[S+]([O-])c2ccc(C)cc2)cc1 (stereo not drawn) [Bis (p-tolyl) thiosulfinate] | >4 mM |  |  |  | >4 mM |  |  |  | 1 mM | 0.125 mM | 0.25 mM | 0.125 mM | 0.25 mM | 1 mM |  | 
6 | Fc1ccc(SSc2ccc(F)cc2)cc1 [Bis (4-fluorophenyl) disulfide] |  | > 1 mM | 0.125 mM | 0.25 mM |  | 0.06 mM | 0.06 mM | > 1 mM |  |  |  |  |  |  | No effect | 
7 | CCCCSSCCCC [Di-n-butyl disulfide] |  | > 1 mM | > 4 mM | > 4 mM |  | > 4 mM | > 4 mM | > 1 mM |  |  |  |  |  |  | No effect | 
8 | Cc1ccc(SSc2ccc(C)cc2)cc1 [Di-p-tolyl disulfide] | >4 mM | > 1 mM | > 4 mM | > 4 mM | 4 mM | > 4 mM | > 4 mM | > 1 mM |  |  |  |  |  |  | No effect | 
9 | CCCSSCCC [Di-n-propyl disulfide] | 4 mM | > 4 mM | > 4 mM | > 4 mM | >4 mM | > 4 mM | > 4 mM | > 4 mM |  |  |  |  |  |  | Positive effect | fast inflammation reduction
10 | COc1ccc(SSc2ccc(OC)cc2)cc1 [Bis (4-methoxyphenyl) disulfide, Bis(4-methoxyphenyl) disulfide] |  | > 1 mM | > 4 mM | > 4 mM |  | > 4 mM | > 4 mM | > 1 mM |  |  |  |  |  |  | No effect | 
